Assay: molar heat capacity at constant pressure
Conditions: 101.33 kPa, Liquid, heat bridge-scanning calorimeter

CCCCn1cc[n+](C)c1.F[P-](F)(F)(F)(F)F [1-butyl-3-methylimidazolium hexafluorophosphate]
Conditions | molar heat capacity at constant pressure [J/K/mol]
480.79 K | 497.89
480.92 K | 498.17
481.06 K | 498.17
481.2 K | 498.17
481.5 K | 498.46
481.64 K | 498.74
481.78 K | 499.31
481.91 K | 498.74
482.05 K | 498.46
482.2 K | 498.46
482.34 K | 498.46
482.47 K | 498.46
482.61 K | 498.46
482.75 K | 498.46
482.89 K | 498.46
483.19 K | 498.46
483.32 K | 498.74
483.46 K | 499.02
483.6 K | 499.02
483.74 K | 499.31
483.87 K | 499.31
484.01 K | 499.31
484.15 K | 500.16
484.29 K | 500.16
484.59 K | 499.59
484.72 K | 499.59
484.86 K | 499.31
485 K | 499.59
485.14 K | 499.88
485.27 K | 499.59
485.41 K | 499.88
485.55 K | 499.59
485.69 K | 500.16
485.83 K | 500.45
485.96 K | 501.01
486.26 K | 500.73
486.4 K | 501.01
486.53 K | 501.01
486.67 K | 500.45
486.81 K | 500.16
486.95 K | 500.16
487.08 K | 500.45
487.22 K | 501.01
487.36 K | 500.73
487.66 K | 502.15
487.8 K | 501.58
487.94 K | 501.3
488.07 K | 501.01
488.21 K | 501.01
488.35 K | 501.87
488.48 K | 501.3
488.62 K | 501.01
488.77 K | 500.73
488.91 K | 501.3
489.05 K | 501.58
489.34 K | 501.01
489.48 K | 501.58
489.62 K | 501.3
489.75 K | 501.87
489.89 K | 501.3
490.03 K | 501.01
490.16 K | 501.3
490.3 K | 501.87
490.44 K | 501.01
490.74 K | 500.73
490.88 K | 501.3
491.02 K | 501.01
491.15 K | 501.01
491.29 K | 501.01
491.43 K | 501.01
491.56 K | 500.73
491.7 K | 501.3
491.84 K | 501.58
491.98 K | 501.3
492.11 K | 501.01
492.41 K | 501.3
492.55 K | 502.15
492.69 K | 501.87
492.82 K | 502.43
492.96 K | 502.72
493.1 K | 502.15
493.23 K | 501.87
493.37 K | 501.58
493.51 K | 501.3
493.81 K | 501.3
493.95 K | 502.43
494.09 K | 503.29
494.22 K | 502.72
494.36 K | 502.72
494.5 K | 502.72
494.64 K | 502.72
494.77 K | 502.72
494.91 K | 502.72
495.05 K | 502.72
495.2 K | 503.29
495.5 K | 502.72
